24 molecules from patent US20240174696A1, “2,8-DIAZASPIRO[4.5]DECANE COMPOUNDS” (Genentech, Inc., priority 2021, published 2024) can be followed below.

In test [1] the test system is TAZ nuclear translocation in SW1990 cells. In words: TAZ Nuclear Translocation Assay. It counts as cell-based. Particulars: Homo sapiens, 4 hours. Here is the method: The SW1990 cells (ATCC, CRL2172) were seeded at 5000 cells/well by adding 30 μL/well of cells in RPMI1640, 10% FBS, 2 mM glutamine culture media to a 384-well plate (Greiner 781091). The cells were incubated overnight at 37° C. Next day, test compounds were directly added to the cells using the Echo Liquid Handler (Labcyte), incubate at 37° C. for 4 hours. The cells were fixed with 4% paraformaldehyde and incubate for 20 minutes at room temperature. After washing three times with 100 μL PBS, 0.5% Triton X-100 was added to permeabilize the cells, incubate at room temperature for 5 minutes, following by washing the cells three times with PBS. 3% BSA was added to the cells, incubate for one hour at room temperature, following by washing three times with PBS. 50 μL of 1:750 diluted rabbit Anti-TAZ (Cell signaling D316D) in 3% BSA was added to the cells, incubate at 4° C. overnight. Next day, after washing the cells three times with PBS, 50 μL of 1:1250 diluted donkey anti-Rabbit, Alexa Fluor 488 (Invitrogen A21206) and 1:6250 diluted Hoechst 33342 (Molecular Probes H-21492) in 3% BSA was added to the cells, incubate at room temperature for one hour. The cells were washed three times with PBS, then image with the CellInsight CX7 High-Content Imager. The ratio of nuclear mean fluorescence intensity and cytoplasmic ring region mean fluorescence intensity was calculated. The % inhibition was normalized using DMSO as 0% inhibition and an inhibitor control as 100% inhibition. The EC50 values were calculated by fitting the % inhibition with a nonlinear four-parameter logistical equation.

Test [2] deals with Human LATS2 catalytic domain (Homo sapiens (Human), UniProt Q9NRM7). In words: LATS2 High ATP HTRF Assay. It counts as biochemical. The following applies: no asterisk: LATS2 High ATP HTRF Assay, 5000 μM ATP, 0.05 nM LATS2. The procedure:
Human LATS2 catalytic domain which contains the amino acids G553-V1088 (accession NP_055387) was purified in-house. The LATS2 catalytic domain was co-purified with Mob1b (accession NP_775739). The LATS2 biochemical HTRF assay was performed using the HTRF KinEASE-STK S1 Kit (Cisbio, Cat #62ST1PEC), following the protocol from the manufacturer. Compounds were dispensed by the Echo Liquid Handler (Labcyte) into a white 384-well plate (PerkinElmer, Cat #6008289). 3 uL of 2×LATS2 enzyme solution was added to the compounds, following by a 10 minute incubation at room temperature. Then, 2×ATP and STK S1 peptide solution was added to initiate the one hour enzyme reaction at room temperature. The final condition of the reaction was 0.2 nM LATS2, 50 μM ATP, 0.5 μM STK S1 peptide in 50 mM HEPES pH7.2, 10 mM MgCl2, 0.1% BGG, 0.005% Brij-35, 1 mM DTT. The reaction was quenched by adding 6 uL of the detection mixture which contained Streptavidin XL665 and STK Antibody-Cryptate (Cisbio), incubate for 1 hour at room temperature. The HTRF (665 nm/620 nm) signal was read on the Envision plater reader (PerkinElmer). The IC50 values were determined by fitting the % inhibition with a nonlinear four-parameter logistical equation. The Ki values were calculated using the Cheng-Prusoff equation for a competitive inhibitor, IC50═Ki (1+S/Km)+M [E] with ATP Km for LATS2=105 μM.
The LATS2 high ATP HTRF assay was performed using the same protocol as the Standard LATS2 HTRF assay. The final condition of the reaction was 0.05 nM LATS2, 5000 μM ATP, 0.5 μM STK S1 peptide in 50 mM HEPES pH7.2, 10 mM MgCl2, 0.1% BGG, 0.005% Brij-35, 1 mM DTT and the 2 hours enzyme reaction at room temperature.

Human LATS2 catalytic domain, sequence (Q9NRM7 553-1088): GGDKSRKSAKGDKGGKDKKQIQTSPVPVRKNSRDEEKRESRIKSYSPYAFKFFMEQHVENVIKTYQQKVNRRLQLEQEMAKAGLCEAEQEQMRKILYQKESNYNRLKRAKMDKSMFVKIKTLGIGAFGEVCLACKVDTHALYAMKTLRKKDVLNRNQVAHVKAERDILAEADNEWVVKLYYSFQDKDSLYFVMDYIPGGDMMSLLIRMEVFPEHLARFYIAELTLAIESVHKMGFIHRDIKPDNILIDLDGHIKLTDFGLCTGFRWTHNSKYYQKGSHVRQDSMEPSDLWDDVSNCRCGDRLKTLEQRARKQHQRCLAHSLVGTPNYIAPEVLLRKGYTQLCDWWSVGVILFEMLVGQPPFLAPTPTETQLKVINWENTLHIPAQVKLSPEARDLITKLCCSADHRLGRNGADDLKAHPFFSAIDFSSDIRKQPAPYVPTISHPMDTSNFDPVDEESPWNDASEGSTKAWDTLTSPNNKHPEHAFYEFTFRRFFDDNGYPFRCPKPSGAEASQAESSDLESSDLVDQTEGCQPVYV
Human LATS2 catalytic domain, sequence (Q7L9L4 whole entry partner, the tested form may be a part): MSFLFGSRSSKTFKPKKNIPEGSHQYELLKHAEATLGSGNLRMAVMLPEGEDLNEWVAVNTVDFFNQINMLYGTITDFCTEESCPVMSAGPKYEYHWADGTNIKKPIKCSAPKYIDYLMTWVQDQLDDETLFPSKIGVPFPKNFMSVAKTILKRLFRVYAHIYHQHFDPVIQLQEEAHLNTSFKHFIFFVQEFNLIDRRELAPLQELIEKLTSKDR

Turning to `NS(=O)(=O)CCN1CCC2(CCN(c3nc(-c4ccncc4)nc4cnccc34)CC2)C1` [Compound 109, 2-(8-(2-(pyridin-4-yl)pyrido[3,4-d]pyrimidin-4-yl)-2,8-diazaspiro[4.5]decan-2-yl)ethanesulfonamide], it took 3800 nM to reach a half-maximal effect in test [1] (EC50). In test [2], the affinity corresponds to a Ki of 0.043 nM.
In the case of `CC(C)N1CCC2(CCN(c3nc(-c4ccncc4)nc4cnccc34)CC2)C1` [Compound 117, 4-(2-isopropyl-2,8-diazaspiro[4.5]decan-8-yl)-2-(pyridin-4-yl)pyrido[3,4-d]pyrimidine], the concentration giving a half-maximal response (EC50) (as a rule, the midpoint of the concentration-response curve) in test [1] is 1600 nM. The inhibition constant Ki (commonly a measure of affinity in units of concentration, obtained from inhibition or displacement) in test [2] was determined as 0.41 nM.
On the same counts, the results for `c1cc(-c2nc(N3CCC4(CC3)CCN(C3CCCCC3)C4)c3ccncc3n2)ccn1` [Compound 119, 4-(2-cyclohexyl-2,8-diazaspiro[4.5]decan-8-yl)-2-(pyridin-4-yl)pyrido[3,4-d]pyrimidine] are 430 nM and 0.03 nM.
For `CC(=O)NCCN1CCC2(CCN(c3nc(-c4ccncc4)nc4cnccc34)CC2)C1` [Compound 123, N-(2-(8-(2-(pyridin-4-yl)pyrido[3,4-d]pyrimidin-4-yl)-2,8-diazaspiro[4.5]decan-2-yl)ethyl)acetamide] the same measures were 2100 nM and 1.09 nM.
On the same counts, the results for `CS(=O)(=O)NCCN1CCC2(CCN(c3nc(-c4ccncc4)nc4cnccc34)CC2)C1` [Compound 126, N-(2-(8-(2-(pyridin-4-yl)pyrido[3,4-d]pyrimidin-4-yl)-2,8-diazaspiro[4.5]decan-2-yl)ethyl)methanesulfonamide] are 960 nM and 0.11 nM.
As to `NC(=O)CN1CCC2(CCN(c3nc(-c4ccncc4)nc4cnccc34)CC2)C1` [Compound 130, 2-(8-(2-(pyridin-4-yl)pyrido[3,4-d]pyrimidin-4-yl)-2,8-diazaspiro[4.5]decan-2-yl)acetamide], in test [1], the EC50 was determined as 1200 nM. For the same molecule, in test [2], the inhibitory constant (Ki) amounted to 0.45 nM.
For the molecule `NC(=O)CCN1CCC2(CCN(c3nc(-c4ccncc4)nc4cnccc34)CC2)C1` [Compound 132, 3-(8-(2-(pyridin-4-yl)pyrido[3,4-d]pyrimidin-4-yl)-2,8-diazaspiro[4.5]decan-2-yl)propanamide], the EC50 in test [1] stood at 2400 nM. This molecule yielded an inhibitory constant (Ki) in test [2] of 0.25 nM.
On the same counts, the results for `FCCN1CCC2(CCN(c3nc(-c4ccncc4)nc4cnccc34)CC2)C1` [Compound 134, 4-(2-(2-fluoroethyl)-2,8-diazaspiro[4.5]decan-8-yl)-2-(pyridin-4-yl)pyrido[3,4-d]pyrimidine] are 1100 nM and 0.72 nM.
On the same counts, the results for `FCCCN1CCC2(CCN(c3nc(-c4ccncc4)nc4cnccc34)CC2)C1` [Compound 135, 4-(2-(3-fluoropropyl)-2,8-diazaspiro[4.5]decan-8-yl)-2-(pyridin-4-yl)pyrido[3,4-d]pyrimidine] are 420 nM and 0.063 nM.
For `N#CCCN1CCC2(CCN(c3nc(-c4ccncc4)nc4cnccc34)CC2)C1` [Compound 136, 3-(8-(2-(pyridin-4-yl)pyrido[3,4-d]pyrimidin-4-yl)-2,8-diazaspiro[4.5]decan-2-yl)propanenitrile] the same measures were 3200 nM and 0.45 nM.
The molecule `c1cc(-c2nc(N3CCC4(CCN(c5cn[nH]c5)C4)CC3)c3ccncc3n2)ccn1` [Compound 141, 4-(2-(1H-pyrazol-4-yl)-2,8-diazaspiro[4.5]decan-8-yl)-2-(pyridin-4-yl)pyrido[3,4-d]pyrimidine] showed an EC50 in test [1] greater than 10000 nM. Moreover, affinity in test [2] was put at a Ki of 3.29 nM.
On the same counts, the results for `Cc1n[nH]cc1-c1nc(N2CCC3(CCNC3)CC2)c2ccncc2n1` [Compound 142, 2-(3-methyl-1H-pyrazol-4-yl)-4-(2,8-diazaspiro[4.5]decan-8-yl)pyrido[3,4-d]pyrimidine] are greater than 10000 nM and 0.037 nM.
For `Cc1n[nH]cc1-c1nc(N2CCC3(CCN(CCO)C3)CC2)c2ccncc2n1` [Compound 146, 2-(8-(2-(3-methyl-1H-pyrazol-4-yl)pyrido[3,4-d]pyrimidin-4-yl)-2,8-diazaspiro[4.5]decan-2-yl)ethan-1-ol] the same measures were 2700 nM and 0.088 nM.
On the same counts, the results for `Cc1n[nH]cc1-c1nc(N2CCC3(CC2)CCN(C2CCOC2)C3)c2ccncc2n1` (stereo not drawn) [Compound 148, 2-(3-methyl-1H-pyrazol-4-yl)-4-(2-(tetrahydrofuran-3-yl)-2,8-diazaspiro[4.5]decan-8-yl)pyrido[3,4-d]pyrimidine] are 560 nM and 0.12 nM.
`Cc1n[nH]cc1-c1nc(N2CCC3(CCN(CCCO)C3)CC2)c2ccncc2n1` [Compound 149, 3-(8-(2-(3-methyl-1H-pyrazol-4-yl)pyrido[3,4-d]pyrimidin-4-yl)-2,8-diazaspiro[4.5]decan-2-yl)propan-1-ol] displayed an EC50 in test [1] of 2500 nM. For the same molecule, affinity in test [2] was put at a Ki of 0.045 nM.
`Cc1n[nH]cc1-c1nc(N2CCC3(CCN(CC(C)(C)O)C3)CC2)c2ccncc2n1` [Compound 150, 2-methyl-1-(8-(2-(3-methyl-1H-pyrazol-4-yl)pyrido[3,4-d]pyrimidin-4-yl)-2,8-diazaspiro[4.5]decan-2-yl)propan-2-o0] yielded an EC50 in test [1] of 280 nM. Besides, the inhibitory constant (Ki) in test [2] is 0.059 nM.
On the same counts, the results for `Cc1n[nH]cc1-c1nc(N2CCC3(CCN(CC4COC4)C3)CC2)c2ccncc2n1` [Compound 152, 2-(3-methyl-1H-pyrazol-4-yl)-4-(2-(oxetan-3-ylmethyl)-2,8-diazaspiro[4.5]decan-8-yl)pyrido[3,4-d]pyrimidine] are 840 nM and 0.053 nM.
For `Clc1[nH]ncc1-c1nc(N2CCC3(CCNC3)CC2)c2ccncc2n1` [Compound 153, 2-(5-chloro-1H-pyrazol-4-yl)-4-(2,8-diazaspiro[4.5]decan-8-yl)pyrido[3,4-d]pyrimidine] the same measures were greater than 10000 nM and 0.11 nM.
`c1cc2c(N3CCC4(CCNC4)CC3)nc(-c3ccnc4[nH]ccc34)nc2cn1` [Compound 156, 2-(1H-pyrrolo[2,3-b]pyridin-4-yl)-4-(2,8-diazaspiro[4.5]decan-8-yl)pyrido[3,4-d]pyrimidine] registered an EC50 in test [1] of 4600 nM. In test [2], the affinity corresponds to a Ki of 0.7 nM.
On the same counts, the results for `Cc1cc2c(N3CCC4(CCNC4)CC3)nc(-c3c[nH]nc3C)nc2cn1` [Compound 160, 6-methyl-2-(3-methyl-1H-pyrazol-4-yl)-4-(2,8-diazaspiro[4.5]decan-8-yl)pyrido[3,4-d]pyrimidine] are greater than 10000 nM and 2.02 nM.
`Clc1cncc2nc(-c3ccncc3)nc(N3CCC4(CCNC4)CC3)c12` [Compound 161, 5-chloro-2-(pyridin-4-yl)-4-(2,8-diazaspiro[4.5]decan-8-yl)pyrido[3,4-d]pyrimidine]: in test [1], the midpoint of the response, the EC50, lay at 1900 nM. For the same molecule, the Ki in test [2] was found to be 5.55 nM.
On the same counts, the results for `Cc1cncc2nc(-c3ccncc3)nc(N3CCC4(CCNC4)CC3)c12` [Compound 162, 5-methyl-2-(pyridin-4-yl)-4-(2,8-diazaspiro[4.5]decan-8-yl)pyrido[3,4-d]pyrimidine] are 4700 nM and 1.54 nM.
For `Cc1n[nH]cc1-c1nc(N2CCC3(CCNC3)CC2)c2ccnc(C)c2n1` [Compound 163, 8-methyl-2-(3-methyl-1H-pyrazol-4-yl)-4-(2,8-diazaspiro[4.5]decan-8-yl)pyrido[3,4-d]pyrimidine] the same measures were greater than 10000 nM and 2.88 nM.
On the same counts, the results for `CC1NCCC12CCN(c1nc(-c3ccncc3)nc3cnccc13)CC2` (stereo not drawn) [Compound 166, 4-(1-methyl-2,8-diazaspiro[4.5]decan-8-yl)-2-(pyridin-4-yl)pyrido[3,4-d]pyrimidine] are 1800 nM and 2.67 nM.
